Data: patent US20260209220A1, “SUBSTITUTED TETRAHYDROPYRROLO-PYRIDINONE COMPOUNDS AND THEIR USE IN TREATING MEDICAL CONDITIONS” (Karuna Therapeutics, Inc., priority 2022, published 2026)

Columns and labels:
[1] = molecular target: T1, human M4 receptor (Homo sapiens, UniProt P08173); assay: M4 GTPγS PAM assay (CHO-K1 membranes, 35S-GTP binding, with EC20 acetylcholine); type: biochemical; settings: with EC20 acetylcholine (40 nM)
T1 construct: expressed in transfected cells; host or cells: CHO-K1 cells (membranes)
T1 sequence (P08173 1-479): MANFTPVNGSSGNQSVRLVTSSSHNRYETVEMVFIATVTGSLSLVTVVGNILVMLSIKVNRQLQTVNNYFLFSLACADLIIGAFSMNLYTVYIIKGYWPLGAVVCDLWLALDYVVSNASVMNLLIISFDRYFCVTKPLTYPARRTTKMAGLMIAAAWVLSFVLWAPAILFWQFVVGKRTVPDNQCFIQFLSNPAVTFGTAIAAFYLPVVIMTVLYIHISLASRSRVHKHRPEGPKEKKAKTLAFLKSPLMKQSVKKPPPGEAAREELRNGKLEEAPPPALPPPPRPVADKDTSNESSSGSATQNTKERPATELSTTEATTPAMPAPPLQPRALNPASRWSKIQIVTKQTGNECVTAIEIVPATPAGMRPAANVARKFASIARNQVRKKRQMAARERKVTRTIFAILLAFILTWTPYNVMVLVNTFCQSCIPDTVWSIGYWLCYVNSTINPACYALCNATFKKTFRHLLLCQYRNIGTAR
Description: The M4 GTPγS PAM method was used. Membranes were prepared for GTPgS binding assays from CHO-K1 cells stably expressing human M4 receptor. Briefly, cells were grown in 5-layer cell culture flasks. Cells were washed with 50 mL of PBS and then dissociated with 0.05% trypsin. Dissociated cells were then collected by centrifugation at 650×g for 8 minutes at 4° C. Pellets were washed again in PBS by centrifugation and resuspended in 30 mL of 20 mM HEPES, 10 mM EDTA, pH 7.4. After sitting on ice for 30 min, membranes were collected by centrifugation at 50000×g for 15′ at 4° C., resuspended in 30 mL of 20 mM HEPES, 0.1 mM EDTA, pH 7.4 and collected again by centrifugation. Pellets were then washed twice by centrifugation in 30 mL of 20 mM HEPES, pH 7.4, and stored at −80° C. until the day of the assay. On the day of the assay, pellets were thawed on ice and resuspended in 1 mL of 20 mM HEPES, pH 7.4, 10 mM MgCl2, 100 mM NaCl using dounce homogenization. Membrane protein concentration is determined by BCA protein assay (Promega, Madison, WI) according to Promega guidelines.
On the day of the assay, serial dilutions of test PAM compounds were brought up in assay buffer (20 mM HEPES, 10 mM MgCl2, 100 mM NaCl) at 4X final assay concentration. […] of membrane homogenates (containing […] of membrane protein) were prepared in assay buffer supplemented with GDP at […] final assay concentration (final assay concentration of GDP is 5 μM for M2 and 0.1 μM for M4) and dispensed into 96 well polypropylene, U-bottom Greiner plates. 25 ml of vehicle or test PAM compound at 4× of final assay concentration diluted in the assay buffer were added to membrane and plates are incubated for 10-15 minutes at room temperature with gentle shaking. Then, […] of EC20 acetylcholine in assay buffer at 4× final assay concentration was added to assay plates (EC20 final assay concentrations was 40 nM for human M4).
Plates were then incubated, with shaking, for an additional 10-15 minutes. […] of 0.4 nM 35S-GTP (Perkin Elmer, Waltham, MA) in assay buffer was added to assay mixtures. The binding reaction is left on the shaker for 1 hour at room temperature. Membranes in assay reactions were then transferred to GF/C filter plates (Unifilter, Perkin Elmer) and washed three times using a FilterMate Harvester (Perkin Elmer) with cold assay buffer containing no GDP. Filter plates were then dried at 40° C. overnight followed by the addition of […] of Beta Plate Scintillation liquid. Plates are top and bottom sealed before being read on TopCount scintillation counter (Perkin Elmer, Waltham, MA).

[2] = molecular target: T2, hM4 receptors (Homo sapiens, UniProt P08173); assay: Human M4 PAM PERK assay (CHO cells, TR-FRET, with EC20 acetylcholine); type: cell-based
T2 construct: expressed in transfected cells; host or cells: CHO cells
T2 sequence (P08173 1-479): T1 sequence (P08173 1-479)
Method in brief: (§1)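 CHO cells expressing human or rat M4, serum-starved 4 h, then given compound (10-point, 10 μM top, ½-log) with EC20 acetylcholine (10 nM final) for 5 min at 37 °C. Lysates assayed for phospho-ERK by TR-FRET after 2 h detection at RT.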

[3] = molecular target: T3, rM4 receptors (Rattus norvegicus, UniProt P08485); assay: Rat M4 PAM PERK assay (CHO cells, TR-FRET, with EC20 acetylcholine); type: cell-based
T3 construct: expressed in transfected cells; host or cells: CHO cells
T3 sequence (P08485 1-478): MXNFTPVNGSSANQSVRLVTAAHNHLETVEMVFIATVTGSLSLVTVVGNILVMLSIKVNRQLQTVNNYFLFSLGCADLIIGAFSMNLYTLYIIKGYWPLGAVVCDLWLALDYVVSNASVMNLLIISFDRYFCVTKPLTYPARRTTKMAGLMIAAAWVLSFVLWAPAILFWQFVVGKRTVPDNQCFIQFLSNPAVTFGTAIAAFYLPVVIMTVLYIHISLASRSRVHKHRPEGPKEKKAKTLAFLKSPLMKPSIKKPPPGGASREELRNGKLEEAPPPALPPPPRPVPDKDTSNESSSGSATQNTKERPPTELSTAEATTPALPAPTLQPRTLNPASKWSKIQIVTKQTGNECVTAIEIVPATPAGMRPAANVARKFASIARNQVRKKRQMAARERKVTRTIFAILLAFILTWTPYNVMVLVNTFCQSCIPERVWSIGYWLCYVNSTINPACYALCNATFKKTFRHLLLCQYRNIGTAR
Method in brief: as §1

Row | SMILES | EC50 [1] [nM] | EC50 [2] [nM] | EC50 [3] [nM]
1 | Cc1c2c(n(C)c(=O)c1Cl)CN(C(=O)CC1CN(c3ccc(F)cc3)C1)C2 [Compound I-79] | < 50 | < 50 | 50 to 200
2 | Cc1cc(=O)n(C)c2c1CN(C(=O)CC1CN(c3cccnc3)C1)C2 [Compound I-3] | < 50 | 50 to 200 | 200 to 1000
3 | COc1cccc(N2CC(CC(=O)N3Cc4c(C)cc(=O)n(C)c4C3)C2)c1 [Compound I-7] | 200 to 1000 | 200 to 1000 | 50 to 200
4 | Cc1c2c(n(C)c(=O)c1F)CN(C(=O)CC1CN(c3cnc(C(F)(F)F)cn3)C1)C2 [Compound I-90] | 200 to 1000 | 200 to 1000 | 50 to 200
5 | Cc1cc(=O)n(C)c2c1CN(C(=O)CC1CN(c3ccc(C#N)c(C(F)(F)F)c3)C1)C2 [Compound I-27] | 50 to 200 | 50 to 200 | 50 to 200
6 | Cc1c2c(n(C)c(=O)c1C)CN(C(=O)CC1CN(c3ccc(C(C)(C)O)c(F)c3)C1)C2 [Compound I-59] | < 50 | < 50 | 50 to 200
7 | Cc1c2c(n(C)c(=O)c1Cl)CN(C(=O)CC1CN(c3ncns3)C1)C2 [Compound I-80] | 50 to 200 | < 50 | 200 to 1000
8 | Cc1cc(=O)n(C)c2c1CN(C(=O)CC1CN(c3ccnc(C(F)(F)F)n3)C1)C2 [Compound I-23] | 200 to 1000 | 200 to 1000 | 200 to 1000
9 | Cc1cc(=O)n(C)c2c1C(C)N(C(=O)CC1CN(c3ccc(C(F)(F)F)cc3)C1)C2 (stereo not drawn) [Compound I-115] | 50 to 200 | 200 to 1000 | 200 to 1000
10 | Cc1c2c(n(C)c(=O)c1C)CN(C(=O)CC1CN(c3cc(F)cc(F)c3)C1)C2 [Compound I-56] | 50 to 200 | < 50 | 50 to 200
11 | Cc1cc(=O)n(C)c2c1CN(C(=O)CC1CN(c3ccc(OC(F)(F)F)cc3)C1)C2 [Compound I-12] | 50 to 200 | 200 to 1000 | 200 to 1000

More lines, now with the values ahead:

Row | EC50 [1] [nM] | EC50 [2] [nM] | EC50 [3] [nM] | SMILES
12 | < 50 | < 50 | 200 to 1000 | Cc1cc(=O)n(C)c2c1CN(C(=O)CC1CN(c3cc(F)cc(F)c3)C1)C2 [Compound I-36]
13 | > 1000 | 200 to 1000 | 50 to 200 | Cc1cc(=O)n(C)c2c1CN(C(=O)CC1CN(c3cnc(C(F)(F)F)cn3)C1)C2 [Compound I-26]
14 | 50 to 200 | 50 to 200 | > 1000 | Cc1c2c(n(CC(F)(F)F)c(=O)c1Cl)CN(C(=O)CC1CN(c3ccncn3)C1)C2 [Compound I-95]
15 | > 1000 | > 1000 | > 1000 | Cc1c2c(n(C)c(=O)c1Cl)CN(C(=O)C(C)C1CN(c3ccnc(C(F)(F)F)c3)C1)C2 (single isomer, unassigned) [Compound I-82, 3-Chloro-1,4-dimethyl-6-(2-(1-(2-(trifluoromethyl)pyridin-4-yl)azetidin-3-yl)propanoyl)-1,5,6,7-tetrahydro-2H-pyrrolo[3,4-b]pyridin-2-one]
16 | 50 to 200 | 200 to 1000 | 50 to 200 | Cc1c2c(n(C)c(=O)c1C)CN(C(=O)CC1CN(c3ccc(F)c(C4CC4)c3)C1)C2 [Compound I-55]
17 | > 1000 | 200 to 1000 | 50 to 200 | Cc1cc(=O)n(C)c2c1CN(C(=O)CC1CN(c3cnc(C(F)(F)F)nc3)C1)C2 [Compound I-21]
18 | < 50 | 200 to 1000 | 200 to 1000 | Cc1c2c(n(C)c(=O)c1C)CN(C(=O)CC1CN(c3ccc(F)c(OC4CC4)c3)C1)C2 [Compound I-63, 6-(2-(1-(3-cyclopropoxy-4-fluorophenyl)azetidin-3-yl)acetyl)-1,3,4-trimethyl-1,5,6,7-tetrahydro-2H-pyrrolo[3,4-b]pyridin-2-one]
19 | 200 to 1000 | 200 to 1000 | > 1000 | Cc1cc(=O)n(C)c2c1CN(C(=O)CC1CN(c3cnn(C4CC4)c3)C1)C2 [Compound I-37]
20 | < 50 | 50 to 200 | 50 to 200 | Cc1c2c(n(C)c(=O)c1C)CN(C(=O)CC1CN(c3ccc(C(F)(F)F)cc3)C1)C2 [Compound I-43]
